Laboratory results taken from the NIST ThermoML archive (doi:10.1016/j.jct.2007.04.006).

Tests used:
[1] = mn = molality of the nth substance listed, in mol/kg; conditions: 101 kPa, Liquid; for speed of sound: Sing-around technique in a fixed-path interferometer
[2] = 298.15 K, 101.33 kPa, Liquid; for speed of sound: Sing-around technique in a fixed-path interferometer

[Br-].[Li+] [lithium bromide] + CC(C)=O
[1], 298.15 K
Conditions | mass density [kg/m3] | speed of sound [m/s]
m1 = 0.0301 | 784.377 | 1141.5
m1 = 0.0367 | 785.81 | 1142.3
m1 = 0.0486 | 786.228 | 1142.6
m1 = 0.0679 | 787.379 | 1143.1
m1 = 0.0776 | 787.748 | 1143.3
m1 = 0.0873 | 790.137 | 1144.5
m1 = 0.099 | 793.601 | 1146.2
m1 = 0.1177 | 797.348 | 1148.1
m1 = 0.1424 | 803.296 | 1150.9
m1 = 0.3719 | 806.427 | 1152.3
m1 = 0.4973 | 811.456 | 1154.5
m1 = 0.5928 | 818.719 | 1157.7
m1 = 0.7044 | 824.988 | 1160.3
m1 = 0.8 | 829.74 | 1162.3

CC(C)O [propan-2-ol]
[2]
Conditions | mass density [kg/m3] | speed of sound [m/s]
– | 780.804 | 1139.1

CC#N [acetonitrile]
[2]
Conditions | mass density [kg/m3] | speed of sound [m/s]
– | 776.6 | 1279.2

[Br-].[Li+] [lithium bromide] + CC(=O)N(C)C
[1], 323.15 K
Conditions | mass density [kg/m3] | speed of sound [m/s]
m1 = 0.0322 | 915.827 | 1360.8
m1 = 0.0511 | 917.401 | 1362.5
m1 = 0.0638 | 918.452 | 1363.6
m1 = 0.0978 | 921.232 | 1366.4
m1 = 0.1188 | 922.89 | 1368.1
m1 = 0.1475 | 925.178 | 1370.3
m1 = 0.2003 | 929.349 | 1374.4
m1 = 0.2472 | 933.065 | 1378.2
m1 = 0.3042 | 937.515 | 1382.1
m1 = 0.3988 | 944.893 | 1389.2
m1 = 0.4886 | 951.867 | 1395.9
m1 = 0.601 | 960.362 | 1403.8
m1 = 0.7053 | 968.26 | 1411.4
m1 = 0.9019 | 982.963 | 1425.5
m1 = 1 | 990.219 | 1432.6
m1 = 1.189 | 1004.06 | 1446.1
m1 = 1.327 | 1013.96 | 1455.4

CC(C)=O [acetone]
[2]
Conditions | mass density [kg/m3] | speed of sound [m/s]
– | 784.233 | 1161.7

[Br-].[Li+] [lithium bromide] + CCO
[1], 298.15 K
Conditions | mass density [kg/m3] | speed of sound [m/s]
m1 = 0.0789 | 790.432 | 1147
m1 = 0.0913 | 791.251 | 1147.4
m1 = 0.0985 | 791.782 | 1147.8
m1 = 0.1384 | 794.334 | 1149.2
m1 = 0.1556 | 795.465 | 1150.1
m1 = 0.2019 | 798.467 | 1151.6
m1 = 0.2348 | 800.584 | 1152.6
m1 = 0.2495 | 801.494 | 1153.2
m1 = 0.301 | 804.725 | 1154.7
m1 = 0.4002 | 810.966 | 1157.8
m1 = 0.4903 | 816.539 | 1160.5
m1 = 0.6076 | 823.796 | 1163.8
m1 = 0.7038 | 829.747 | 1166.5
m1 = 0.8013 | 835.512 | 1168.9
m1 = 0.8975 | 841.268 | 1171.5
m1 = 1.013 | 848.08 | 1174.4
m1 = 1.093 | 852.846 | 1176.6
m1 = 1.215 | 860.012 | 1179.5
